In US9266857B2, “Bicyclic AZA compounds as muscarinic M1 receptor agonists” (Heptares Therapeutics Limited, priority 2012, dated 2016):
Read-outs that look alike come from different tables or passages of the source.

Columns and labels:
Assay type in all cases: cell-based
[1] = molecular target: T1, human muscarinic M1 receptor (Homo sapiens, UniProt P11229); experiment: Alphascreen Surefire phospho-ERK1/2 functional assay, M1; conditions: for EC50: phospho-ERK1/2, read-out: pEC50 M1 (converted); for Emax: CHO
T1 construct: expressed in transfected cells
T1 sequence (P11229 1-460): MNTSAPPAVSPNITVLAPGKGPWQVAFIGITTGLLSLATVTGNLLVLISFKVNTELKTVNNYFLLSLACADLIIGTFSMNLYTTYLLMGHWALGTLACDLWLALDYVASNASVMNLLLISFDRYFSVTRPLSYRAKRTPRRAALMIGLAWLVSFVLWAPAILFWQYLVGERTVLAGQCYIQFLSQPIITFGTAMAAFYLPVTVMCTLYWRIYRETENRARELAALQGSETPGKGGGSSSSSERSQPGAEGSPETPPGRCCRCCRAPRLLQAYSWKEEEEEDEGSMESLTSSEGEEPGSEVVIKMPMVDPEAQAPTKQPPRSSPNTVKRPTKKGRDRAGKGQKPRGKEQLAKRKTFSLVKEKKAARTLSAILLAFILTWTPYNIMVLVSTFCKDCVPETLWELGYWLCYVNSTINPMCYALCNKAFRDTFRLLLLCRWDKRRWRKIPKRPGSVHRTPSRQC
Procedure: (§1) ERK1/2 phosphorylation is a downstream consequence of both Gq/11 and Gi/o protein coupled receptor activation, making it highly suitable for the assessment of M1, M3 (Gq/11 coupled) and M2, M4 receptors (Gi/o coupled), rather than using different assay formats for different receptor subtypes. CHO cells stably expressing the human muscarinic M1, M2, M3 or M4 receptor were plated (25K/well) onto 96-well tissue culture plates in MEM-alpha+10% dialysed FBS. Once adhered, cells were serum-starved overnight. Agonist stimulation was performed by the addition of 5 μL agonist to the cells for 5 min (37° C.). Media was removed and 50 μL of lysis buffer added. After 15 min, a 4 μL sample was transferred to 384-well plate and 7 μL of detection mixture added. Plates were incubated for 2 h with gentle agitation in the dark and then read on a PHERAstar plate reader.
(§2) pEC50 and Emax figures were calculated from the resulting data for each receptor subtype.

[2] = molecular target: T2, human muscarinic M2 receptor (Homo sapiens, UniProt P08172); experiment: Alphascreen Surefire phospho-ERK1/2 functional assay, M2; conditions: for EC50: CHO cells stably expressing human M2, phospho-ERK1/2, read-out: pEC50 M2 (converted); for Emax: CHO, read-out: % Emax cf. ACh, M2
T2 construct: expressed in transfected cells
T2 sequence (P08172 1-466): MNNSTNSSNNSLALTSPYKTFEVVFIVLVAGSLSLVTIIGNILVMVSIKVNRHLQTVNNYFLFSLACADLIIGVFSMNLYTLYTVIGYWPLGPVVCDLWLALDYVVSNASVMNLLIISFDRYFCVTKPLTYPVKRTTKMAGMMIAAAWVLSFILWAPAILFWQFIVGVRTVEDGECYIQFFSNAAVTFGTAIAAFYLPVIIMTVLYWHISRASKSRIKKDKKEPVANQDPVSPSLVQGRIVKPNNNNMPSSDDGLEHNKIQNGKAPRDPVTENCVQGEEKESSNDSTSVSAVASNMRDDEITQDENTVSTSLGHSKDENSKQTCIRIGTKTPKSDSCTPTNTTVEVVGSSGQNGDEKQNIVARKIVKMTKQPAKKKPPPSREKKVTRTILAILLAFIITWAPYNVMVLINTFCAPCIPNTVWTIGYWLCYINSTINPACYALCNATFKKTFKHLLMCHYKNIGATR
Procedure: as §1, §2

[3] = molecular target: T3, human muscarinic M3 receptor (Homo sapiens, UniProt P20309); experiment: Alphascreen Surefire phospho-ERK1/2 functional assay, M3; conditions: for EC50: CHO cells stably expressing human M3, phospho-ERK1/2, read-out: pEC50 M3 (converted); for Emax: CHO, read-out: % Emax cf. ACh, M3
T3 construct: expressed in transfected cells
Procedure: as §1, §2

[4] = molecular target: T4, human muscarinic M4 receptor (Homo sapiens, UniProt P08173); experiment: Alphascreen Surefire phospho-ERK1/2 functional assay, M4; conditions: for EC50: phospho-ERK1/2, read-out: pEC50 M4 (converted); for Emax: CHO
T4 construct: expressed in transfected cells
T4 sequence (P08173 1-479): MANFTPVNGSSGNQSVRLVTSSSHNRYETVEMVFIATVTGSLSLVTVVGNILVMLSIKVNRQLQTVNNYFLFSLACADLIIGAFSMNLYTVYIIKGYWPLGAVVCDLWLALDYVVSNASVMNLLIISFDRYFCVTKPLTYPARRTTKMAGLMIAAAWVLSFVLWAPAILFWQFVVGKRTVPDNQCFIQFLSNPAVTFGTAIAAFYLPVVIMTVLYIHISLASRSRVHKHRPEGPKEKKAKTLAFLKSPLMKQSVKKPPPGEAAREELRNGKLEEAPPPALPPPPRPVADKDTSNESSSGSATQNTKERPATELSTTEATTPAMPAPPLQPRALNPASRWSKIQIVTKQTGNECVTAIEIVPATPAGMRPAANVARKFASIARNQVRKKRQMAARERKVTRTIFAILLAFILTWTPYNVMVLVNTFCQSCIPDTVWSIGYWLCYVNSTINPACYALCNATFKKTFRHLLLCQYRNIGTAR
Procedure: as §1, §2

[5] = CHO cells stably expressing human M1
[6] = CHO cells stably expressing human M4
[7] = read-out: % Emax cf. ACh, M1, CHO cells stably expressing human M1, relative to ACh
[8] = read-out: % Emax cf. ACh, M4, CHO cells stably expressing human M4, relative to ACh

T3 sequence (P20309 whole entry): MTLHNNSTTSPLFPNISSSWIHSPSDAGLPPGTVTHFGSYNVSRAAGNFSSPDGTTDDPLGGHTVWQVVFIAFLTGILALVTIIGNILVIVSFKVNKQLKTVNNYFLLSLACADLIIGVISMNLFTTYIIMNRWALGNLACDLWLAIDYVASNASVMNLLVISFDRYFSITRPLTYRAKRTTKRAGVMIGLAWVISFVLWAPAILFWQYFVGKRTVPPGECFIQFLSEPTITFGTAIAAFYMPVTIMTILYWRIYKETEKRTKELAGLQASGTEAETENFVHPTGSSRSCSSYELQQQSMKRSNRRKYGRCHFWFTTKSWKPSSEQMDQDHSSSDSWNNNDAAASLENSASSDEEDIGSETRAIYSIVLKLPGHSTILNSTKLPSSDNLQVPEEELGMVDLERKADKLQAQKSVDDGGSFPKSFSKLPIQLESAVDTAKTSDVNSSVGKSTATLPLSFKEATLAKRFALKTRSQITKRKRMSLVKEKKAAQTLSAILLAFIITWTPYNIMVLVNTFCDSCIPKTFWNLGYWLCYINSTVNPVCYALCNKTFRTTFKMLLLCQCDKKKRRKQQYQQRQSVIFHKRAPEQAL

Structure (SMILES) | EC50 [1, 5] [nM] | Emax ([1]; read-out: % Emax cf. ACh, M1) [%] | EC50 [2] [nM] | Emax [2] [%] | EC50 [3] [nM] | Emax [3] [%] | EC50 [4, 6] [nM] | Emax ([4]; read-out: % Emax cf. ACh, M4) [%] | % Emax cf. ACh, M1 ([1]; CHO cells stably expressing human M1, relative to ACh) [%] | % Emax cf. ACh, M4 ([4]; CHO cells stably expressing human M4, relative to ACh, listed as 1 - Isomer 2) [%] | Emax [1, 7] [%] | Emax [4, 8] [%]
CCOC(=O)N1CCC2(CC(N3CCC(C(=O)NC4(C)CCC4)CC3)C2)C1 (mixture of isomers) [Example 9 - mixture of diastereomers, ethyl 2-{4-[(1-methylcyclobutyl)carbamoyl]piperidin-1-yl}-6-azaspiro[3.4]octane-6-carboxylate] | 51.3 | 142 | > 20000 | 6 | > 20000 | 5 | 380 | 66 | – | – | – | –
CC#CCOC(=O)N1CCC2(CC(N3CCC(C(=O)NC4(C)CCC4)CC3)C2)C1 (mixture of isomers) [Example 10 - mixture of diastereomers, but-2-yn-1-yl 2-{4-[(1-methylcyclobutyl)carbamoyl]piperidin-1-yl}-6-azaspiro[3.4]octane-6-carboxylate] | 155 | 93 | > 20000 | 10 | > 20000 | 3 | 339 | 42 | – | – | – | –
CCOC(=O)N1CCC2(CC(N3CCC(F)(C(=O)NC4(C)CCC4)CC3)C2)C1 (mixture of isomers) [Example 11 - mixture of diastereomers, ethyl 2-{4-fluoro-4-[(1-methylcyclobutyl)carbamoyl]piperidin-1-yl}-6-azaspiro[3.4]octane-6-carboxylate] | 28.2 | 112 | > 20000 | 6 | > 20000 | 4 | 204 | 77 | – | – | – | –
CCOC(=O)N1CC2(CCC(N3CCC(C(=O)NC4(C)CCC4)CC3)C2)C1 (racemic) [Example 12 - racemic, ethyl 6-{4-[(1-methylcyclobutyl)carbamoyl]piperidin-1-yl}-2-azaspiro[3.4]octane-2-carboxylate] | 35.5 | 141 | > 20000 | 8 | > 20000 | 78 | 53.7 | 49 | – | – | – | –
C#CCOC(=O)N1CC2(CCC(N3CCC(C(=O)NC4(C)CCC4)CC3)C2)C1 (racemic) [Example 13 - racemic, prop-2-yn-1-yl 6-{4-[(1-methylcyclobutyl)carbamoyl]piperidin-1-yl}-2-azaspiro[3.4]octane-2-carboxylate] | 15.8 | 139 | > 20000 | 7 | > 20000 | 39 | 52.5 | 44 | – | – | – | –
CCOC(=O)N1C2CCC1CC(N1CCC(C(=O)NC3(C)CCC3)CC1)C2 (single isomer, unassigned) [Example 1 - Isomer 2, ethyl 3-{4-[(1-methylcyclobutyl)carbamoyl]piperidin-1-yl}-8-azabicyclo[3.2.1]octane-8-carboxylate] | 41.7 | – | > 20000 | 0 | > 20000 | 18 | 170 | – | 102 | 98 | – | –
C#CCOC(=O)N1C2CCC1CC(N1CCC(C(=O)NC3(C)CCC3)CC1)C2 (single isomer, unassigned) [Example 2 - Isomer 1, prop-2-yn-1-yl 3-{4-[(1-methylcyclobutyl)carbamoyl]piperidin-1-yl}-8-azabicyclo[3.2.1]octane-8-carboxylate] | 331 | – | > 20000 | 14 | > 20000 | 7 | > 20000 | – | – | – | 94 | 11
CC#CCOC(=O)N1C2CCC1CC(N1CCC(C(=O)NC3(C)CCC3)CC1)C2 (single isomer, unassigned) [Example 3 - Isomer 2, but-2-yn-1-yl 3-{4-[(1-methylcyclobutyl)carbamoyl]piperidin-1-yl}-8-azabicyclo[3.2.1]octane-8-carboxylate] | 363 | – | > 20000 | 10 | > 20000 | 2 | 851 | – | – | – | 109 | 65
[2H]C([2H])([2H])C1(NC(=O)C2CCN(C3CC4(CCN(C(=O)OCC)C4)C3)CC2)CCC1 (single isomer, unassigned) [Example 21 - Isomer 2, ethyl 2-(4-{[1-(1,1,1-trideuteromethyl)cyclobutyl]carbamoyl}piperidin-1-yl)-6-azaspiro[3.4]octane-6-carboxylate] | 67.6 | 107 | > 20000 | 9 | > 20000 | 12 | 170 | 111 | – | – | – | –
[2H]C([2H])([2H])COC(=O)N1CCC2(CC(N3CCC(C(=O)NC4(C)CCC4)CC3)C2)C1 (single isomer, unassigned) [Example 25 - Isomer 2, (2,2,2-trideutero)ethyl 2-{4-[(1-methylcyclobutyl)carbamoyl]piperidin-1-yl}-6-azaspiro[3.4]octane-6-carboxylate] | 53.7 | 108 | > 20000 | 23 | > 20000 | 17 | 174 | 83 | – | – | – | –
[2H]C([2H])([2H])C([2H])([2H])OC(=O)N1CCC2(CC(N3CCC(C(=O)NC4(C)CCC4)CC3)C2)C1 (single isomer, unassigned) [Example 29 - Isomer 2, (1,1,2,2,2-pentadeutero)ethyl 2-{4-[(1-methylcyclobutyl)carbamoyl]piperidin-1-yl}-6-azaspiro[3.4]octane-6-carboxylate] | 55 | 107 | > 20000 | 18 | > 20000 | 13 | 186 | 91 | – | – | – | –
